Series [1] has as its system Chinese hamster V-79 cells. Kind of series: Radiosensitization effect on cells (ER in vitro). The series is classed as cell-based. The following applies: 1.0 mM, 60 min at 37° C., nitrogen (hypoxic), X-ray 1.6 Gy/min. As to the method: Radiosensitization effect on cells (ER in vitro)
A solution of a predetermined concentration (1.0 mM) of a compound to be examined in a medium was added to the dish. After standing for 60 minutes at 37° C., the dish was placed in a closed vessel at room temperature.
After the irradiation, the cells were washed with phosphate buffer and digested with trypsin into single cells. Then, a predetermined amount of the cells was introduced into 5 ml of a culture medium in a culture dish and cultured for 7 days at 37° C. After staining and washing with water, the number of colonies formed was counted.
For comparison, the irradiation was carried out in the nitrogen atmosphere or in the air after adding the medium without the test compound.

For a further series, the system named is EMT-6 tumor cells. Kind of series: Radiosensitization effect on tumor transplanted in animal (ER in vivo). On the set-up: species or system male Bal/c mouse. The following applies: EMT-6 tumor in mouse, 100 mg/kg intraperitoneal, X-ray after 40 minutes at 450 rad/min. for 5 minutes. As to the method: Radiosensitization effect on tumor transplanted in animal (ER in vivo)
To both thighs of male Bal/c mouse (8 weeks; 4 mice in a group), 10^5 of EMT-6 tumor cells were subcutaneously inoculated. After the diameter of the tumor reached about 1 cm, a solution of a compound to be examined in saline in an amount of 100 mg of the compound per kg was intraperitonealy administered. After 40 minutes, X-ray was irradiated at 450 rad/min. for 5 minutes and then the mouse was sacrificed.
After the whol body of the mouse was sterilized with 70% ethanol, the tumor was taken out. The tissue was homogenized and then digested by stirring for 50 minutes at 37° C. with adding 22 ml of trypsin. The number of cells in the supernatant was counted. A predetermined amount of the cells was introduced in a plastic plate having a diameter of about 5 cm. To the plate, 5 ml of medium was added and cultured in a CO2 incubator. The plate containing the irradiated cells was removed from the incubator after 9 days, while a comparison dish containing unirradiated cells was incubated for 10 days. The cells were fixed by methanol and strained by Giemsa stain. Then, the number of colonies formed were counted.
The survival rate was calculated with using the data of the unirradiated cells as control.

A short description of a further series: in vivo. The following applies: mouse, female ICR mice of 5 weeks.
Another series has as its system hypoxic cells. The following applies: compared with no Misonidazole; cited from earlier work.
For series [2] the following is noted: administered in human beings; cited from earlier work.
The conditions of series [3]: hardly administered in an effective amount; cited from earlier work.

A value given as a limit tells only on which side of the number the result lay.

Take `O=[N+]([O-])c1nccn1CC(F)COCC(O)CO` (stereo not drawn) [(1), 1-(2'-fluoro-4'-oxa-6',7'-dihydroxyheptyl)-2-nitroimidazole]: in series [1], the ER in vitro turned out to be 1.49. Also, the ER in vivo in the series on EMT-6 tumor cells came to 1.38. The LD50 in “in vivo” was 2700 mg/kg.
For `O=[N+]([O-])c1nccn1CC(F)COCCO` (stereo not drawn) [(11), 1-(2'-fluoro-4'-oxa-6'-hydroxyhexcyl)-2-nitroimidazole], in series [1], the ER in vitro came to 1.66. Moreover, the ER in vivo in the series with EMT-6 tumor cells worked out at 1.52.
For the compound `NC(=O)CCNC(=O)C(F)(F)Cn1ccnc1[N+](=O)[O-]` [(22), 3-[3'-(2"-nitroimidazolyl)-2',2'-difluoropropionylamino]propionic acid amide], the ER in vitro in series [1] is listed as 1.46. Besides, in the series with EMT-6 tumor cells, the ER in vivo was determined as 1.58. The LD50 in “in vivo” worked out at 2800 mg/kg.
As to `NC(=O)C(F)(F)CNC(=O)C(F)(F)Cn1ccnc1[N+](=O)[O-]` [(24), 3-[3'-(2"-nitroimidazolyl)-2',2'-difluoropropionylamino]-2,2-difluoropropionic acid amide], the ER in vitro in series [1] came out at 1.76. For the same compound, the ER in vivo with EMT-6 tumor cells is on record as 1.41. Further, in “in vivo”, the LD50 stood at 2600 mg/kg.
Regarding `NC(=O)C(F)(F)Cn1ccnc1[N+](=O)[O-]` [(28), 3-(2'-nitroimidazolyl)-2,2-difluoropropionic acid amide], the ER in vitro in series [1] was found to be 1.48. In addition, the ER in vivo with EMT-6 tumor cells is given as 1.32. Moreover, in the series “in vivo”, the LD50 turned out to be 1100 mg/kg.
For the compound `O=C(COCC(F)(F)Cn1ccnc1[N+](=O)[O-])NCCO` [(43), 2[3'-(2"-nitroimidazolyl)-2',2'-difluoropropoxy]acetic acid hydroxyethylamide], in series [1], the ER in vitro was determined as 1.54. In the series on EMT-6 tumor cells, the ER in vivo was found to be 1.38. Moreover, the LD50 in “in vivo” was over 2000 mg/kg.
As for `O=C(COCC(F)(F)Cn1ccnc1[N+](=O)[O-])NO` [(44)], the ER in vitro in series [1] worked out at 1.68. Besides, in the series on EMT-6 tumor cells, the ER in vivo is 1.48.
In the case of `O=C(NCCO)C(F)(F)COCC(F)(F)Cn1ccnc1[N+](=O)[O-]` [(45), 3-[3'-(2"-nitroimidazolyl)-2',2'-difluoropropoxy]-2,2-difluoropropionic acid hydroxyethylamide], the ER in vitro in series [1] came out at 1.63. In addition, the ER in vivo in the series with EMT-6 tumor cells stood at 1.40. In the series “in vivo”, this compound displayed an LD50 of over 1600 mg/kg.
As for `NC(=O)C(F)(F)COCC(F)(F)Cn1ccnc1[N+](=O)[O-]` [(46), 3-[3'-(2"-nitroimidazolyl)-2',2'-difluoropropoxy]2,2-difluoropropionylamide], the ER in vitro in series [1] is reported as 1.58. For the same compound, in the series on EMT-6 tumor cells, the ER in vivo was determined as 1.45.
`O=C(CCNC(=O)C(F)(F)Cn1ccnc1[N+](=O)[O-])NCCO` [(47), 3-[3'-(2"-nitroimidazolyl)-2',2'-difluoropropionamido]propionic acid hydroxyethylamide]: in series [1], the ER in vitro came out at 1.43. In addition, in the series with EMT-6 tumor cells, the ER in vivo is 1.38. The compound also came in with an LD50 in the series “in vivo” of over 2000 mg/kg.
For the compound `NC(=O)CNC(=O)C(F)(F)Cn1ccnc1[N+](=O)[O-]` [(48)], in series [1], the ER in vitro worked out at 1.61. The ER in vivo with EMT-6 tumor cells amounted to 1.49. For the same compound, in “in vivo”, the LD50 worked out at 2200 mg/kg.
For `COC(=O)OCCNC(=O)C(F)(F)Cn1ccnc1[N+](=O)[O-]` [(51), methyl 3-(2'-nitroimidazolyl)-2,2-difluoropropionamidoethoxyformate], the LD50 in “in vivo” was over 3000 mg/kg.
In the case of `COCC(O)Cn1ccnc1[N+](=O)[O-]` (stereo not drawn) [Comparative (1), 1-(2-Nitro-1-imidazolyl)-3-methoxy-2-propanol], the ER in vitro in series [1] is given as 1.50. Also, in the series with EMT-6 tumor cells, the ER in vivo was 1.43. Further, the “hypoxic cell sensitizing effectiveness” value in the series with hypoxic cells is given as “about twice as effective as when no Misonidazole is used”. The “sensitizing effect in human beings” value in series [2] was “No sensitizing effect was confirmed”. For the same compound, the neurotoxicity entry in series [3] is “strong neurotoxicity”.

Values taken from US4977273A, “Fluorine-containing 2-nitroimidazole derivatives” (Kyoto University of Honmachi, priority 1988, dated 1990).
